Measurements as given in patent EP0107907A2, “Improvements in or relating to immunomodulating agents” (ELI LILLY AND COMPANY, priority 1982, dated 1984).

Tested on: murine macrophages
Assay: In vitro activation of murine macrophages (macrophage-mediated tumor cytotoxicity against P815 cells)
Assay type: cell-based
Conditions: for Percent Macrophage Cytotoxicity: 48 hours; for immunomodulatory activity: in the in vitro assay
Experimental: In one procedure, the ability of the compounds to activate murine macrophages in vitro was determined. Peritoneal macrophages were exposed to a compound of formula 1, 2, or 3 simultaneously with the addition of target cells. Tumor cytotoxicity of these treated macrophages was determined 48 hours later by trypan blue enumeration. The percentage of growth inhibition of P815 cells due to composition-mediated macrophage activation was calculated by comparison to that of P815 cells grown in the.presence of macrophages exposed to buffer.

| Compound | Percent Macrophage Cytotoxicity (Fosfomycin 10 µg/ml, Experiment 1) [%] | Percent Macrophage Cytotoxicity (Fosfomycin 10 µg/ml, Experiment 2) [%] | Percent Macrophage Cytotoxicity (Fosfomycin 100 µg/ml, Experiment 1) [%] | Percent Macrophage Cytotoxicity (Fosfomycin 100 µg/ml, Experiment 2) [%] | immunomodulatory activity |
| --- | --- | --- | --- | --- | --- |
| C[C@@H]1O[C@@H]1P(=O)(O)O [Fosfomycin, reference compound] | 49 | 11 | 47 | 30 | – |
| C[C@H](N)C(=O)N[C@@H](C)P(=O)(O)O [alaphosphin, L-alanyl-L-1-aminb-- ethylphosphonic acid, reference compound] | – | – | – | – | did not exhibit immunomodulatory activity |
| O=CN(O)CCCP(=O)(O)O [fosmidomycin, reference compound] | – | – | – | – | did not exhibit immunomodulatory activity |
